# Assay results: US20240287042A1, “NOVEL COMPOUND HAVING INHIBITORY ACTIVITY AGAINST PENDRIN, AND PHARMACEUTICAL USES THEREOF” (UIF (University Industry Foundation), Yonsei University, priority 2021, published 2024)
# Target: T1, human WT SLC26A9 (Homo sapiens, UniProt Q7LBE3)
# T1 construct: expressed in transfected cells
# T1 sequence (Q7LBE3 1-791): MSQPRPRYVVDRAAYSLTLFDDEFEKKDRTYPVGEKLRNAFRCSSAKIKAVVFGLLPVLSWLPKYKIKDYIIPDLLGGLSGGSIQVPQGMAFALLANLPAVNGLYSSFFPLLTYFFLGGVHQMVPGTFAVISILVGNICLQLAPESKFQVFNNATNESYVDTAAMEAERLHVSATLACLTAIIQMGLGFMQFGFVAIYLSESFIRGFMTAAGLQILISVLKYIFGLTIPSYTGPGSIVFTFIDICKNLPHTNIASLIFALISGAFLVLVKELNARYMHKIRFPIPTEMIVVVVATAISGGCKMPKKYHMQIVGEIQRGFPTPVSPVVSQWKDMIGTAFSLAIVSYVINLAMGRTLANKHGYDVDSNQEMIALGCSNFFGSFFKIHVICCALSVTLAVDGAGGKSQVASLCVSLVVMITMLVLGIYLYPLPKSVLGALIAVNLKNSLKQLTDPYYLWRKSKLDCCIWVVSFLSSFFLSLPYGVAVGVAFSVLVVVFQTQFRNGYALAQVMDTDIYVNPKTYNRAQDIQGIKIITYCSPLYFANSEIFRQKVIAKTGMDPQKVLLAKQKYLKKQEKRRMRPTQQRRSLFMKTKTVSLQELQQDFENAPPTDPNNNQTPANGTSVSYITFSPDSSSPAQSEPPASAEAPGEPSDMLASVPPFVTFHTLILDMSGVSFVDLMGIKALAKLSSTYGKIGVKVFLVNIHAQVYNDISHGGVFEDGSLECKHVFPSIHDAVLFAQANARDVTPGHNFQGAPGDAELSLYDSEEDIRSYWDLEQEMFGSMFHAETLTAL
# Assay: SLC26A9 Cl−/I− exchange activity, YFP fluorescence in LN-215 cells
# Format: cell-based
# Conditions: 100 μM, FIG. 3
# Protocol: Chinese hamster ovary (CHO)-K1 cells or LN-215 cells were cultured in DMEM medium containing 10% fetal bovine serum (FBS), 100 units/ml of penicillin and 100 μg/ml streptomycin. CHO-K1 cells or LN-215 cells were stably transfected with pcDNA3.1 encoding the halide sensor YFP-H148Q/I152L/F46L and human wild-type (WT)-SLC26A9. Fisher rat thyroid (FRT) cells stably transfected with YFP-H148Q/I152L/F46L and human wild type (WT)-CFTR or human wild type (WT)-ANO1 were cultured in DMEM/F-12 medium containing 10% fetal bovine serum (FBS), 100 units/ml of penicillin, and 100 μg/ml of streptomycin.
# LN-215 cells expressing human WT SLC26A9 and YFP-F46L/H148Q/I152L, and FRT cells expressing human WT CFTR or ANO1 and YFP-F46L/H148Q/I152L were plated in 96-well microplates at a density of 2×10^4 cells per well, and cultured for 48 hours. […] After culturing at 37° C. for 10 minutes, the 96-well plate was located on the FLUOstar Omega Microplate Reader (BMG Labtech, Ortenberg, Germany) for a fluorescence assay. For assay of the activity of […], fluorescence was recorded continuously (400 ms per point) for 1 second (baseline), whereby each well was assayed individually for SLC26A9-mediated I-influx. Then, 50 μL of NaI-substituted HEPES buffered solution (replacing NaCl with NaI) was added using a liquid injector at 1 second, and YFP fluorescence was recorded for 6 seconds. […]
row,Structure (SMILES),Effect on activity of SLC26A9
1,"Cc1ccc2[nH]c(C(=O)O)c(CC(=O)N3CCN(c4c(C)cccc4Cl)CC3)c2c1 [YPI-A4948, 3-(2-(4-(2-Chloro-6-methylphenyl)piperazin-1-yl)-2-oxoethyl)-5-methyl-1H-indole-2-carboxylic acid]",did not inhibit
2,"Cc1ccc(C)c(N2CCN(C(=O)Cc3c(C(=O)O)[nH]c4ccc(Cl)cc34)CC2)c1 [YPI-H05, 5-chloro-3-(2-(4-(2,5-dimethylphenyl)piperazin-1-yl-)-2-oxoethyl)-1H-indole-2-carboxylic acid]",did not inhibit
